The target of one test is T1, Estrogen receptor (Homo sapiens, UniProt P03372).
T1 sequence (P03372 whole entry): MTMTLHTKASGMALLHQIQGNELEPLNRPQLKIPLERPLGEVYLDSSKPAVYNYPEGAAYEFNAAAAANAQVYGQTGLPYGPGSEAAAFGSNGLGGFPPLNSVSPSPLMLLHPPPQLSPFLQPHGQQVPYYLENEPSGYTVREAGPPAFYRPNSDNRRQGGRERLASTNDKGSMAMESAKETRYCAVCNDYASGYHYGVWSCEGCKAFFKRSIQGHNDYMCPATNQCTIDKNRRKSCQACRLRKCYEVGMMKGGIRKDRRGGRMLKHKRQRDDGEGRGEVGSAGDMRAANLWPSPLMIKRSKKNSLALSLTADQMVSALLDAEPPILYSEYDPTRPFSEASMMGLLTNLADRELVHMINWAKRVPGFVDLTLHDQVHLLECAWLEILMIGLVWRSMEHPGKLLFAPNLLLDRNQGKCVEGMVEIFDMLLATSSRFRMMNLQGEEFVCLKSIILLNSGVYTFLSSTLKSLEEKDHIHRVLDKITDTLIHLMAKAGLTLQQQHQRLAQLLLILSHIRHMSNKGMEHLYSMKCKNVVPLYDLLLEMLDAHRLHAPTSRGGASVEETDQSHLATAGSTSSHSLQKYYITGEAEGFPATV
Kind of test: Binding affinity to human recombinant ERalpha by competitive fluorometric binding assay.

In another test the target is Estrogen receptor beta (Homo sapiens, UniProt Q92731).
Chain of Estrogen receptor beta (Q92731 whole entry): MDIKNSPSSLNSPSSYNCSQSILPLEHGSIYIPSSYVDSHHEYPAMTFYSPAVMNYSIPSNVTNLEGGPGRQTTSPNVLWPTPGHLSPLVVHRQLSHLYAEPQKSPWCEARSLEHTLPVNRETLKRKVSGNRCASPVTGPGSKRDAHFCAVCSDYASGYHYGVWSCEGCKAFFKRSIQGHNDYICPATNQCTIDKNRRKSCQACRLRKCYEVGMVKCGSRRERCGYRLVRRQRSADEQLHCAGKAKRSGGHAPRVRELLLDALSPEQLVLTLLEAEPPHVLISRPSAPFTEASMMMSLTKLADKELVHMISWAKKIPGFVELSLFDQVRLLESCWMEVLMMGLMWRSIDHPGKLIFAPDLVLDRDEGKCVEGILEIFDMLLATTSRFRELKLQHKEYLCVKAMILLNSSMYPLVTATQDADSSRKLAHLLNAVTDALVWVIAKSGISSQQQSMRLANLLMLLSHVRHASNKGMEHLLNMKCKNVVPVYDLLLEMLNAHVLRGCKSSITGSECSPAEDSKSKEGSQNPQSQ
The next test deals with MDA-MB-231. Kind of test: cells. As to conditions: Homo sapiens, MDA-MB-231, 24 h.
In a further test the test system is MCF7. In words: cells. As to conditions: Homo sapiens, MCF7, 24 h.
The test system of a further test is Chorioallantoic membrane. In words: Anti-angiogenesis activity in chicken embryo chorioallantonic membrane measured after 2 hrs by CAM assay. Type of test: functional. The conditions noted are these: Gallus gallus.
The next test relates to HEK293. In words: Cytotoxicity against human HEK293 cells assessed as cell viability after 24 hrs by MTT assay. Type of test: functional, cell-based. As to conditions: HEK293, 24 h. (In general: Formazan colour is commonly taken as a measure of viable cells.)
Test [1] is described as follows: Selectivity index, ratio of IC50 for human recombinant ERbeta to human recombinant ERalpha.

Where only a bound is given, the exact number is not on record here.

Description for Estrogen receptor beta: Binding affinity to human recombinant ERbeta by competitive fluorometric binding assay
Description for MCF7: Antiproliferative activity against human MCF7 cells assessed as cell viability after 24 hrs by MTT assay
Description for MDA-MB-231: Antiproliferative activity against human MDA-MB-231 cells assessed as cell viability after 24 hrs by MTT assay

Broadly, the IC50 is the concentration that gives 50% inhibition. For `CN(C)CCN1C(=O)N(C)C2=C(C(=O)c3ccccc32)C1c1ccc(C(F)(F)F)cc1` (stereo not given), the IC50 at Estrogen receptor was 2.09 µM; on Estrogen receptor beta it was over 10 µM; in the test with MDA-MB-231, over 50 µM; in the test on MCF7, 13.2 µM.
The like results for `CN1CCN(CCOc2ccc(C3NC(=O)N(C)C4=C3C(=O)c3ccccc34)cc2)CC1` (stereo not given) were, in that order, 0.49 µM, over 10 µM, over 50 µM and 14.4 µM.
On the same counts, the results for `CN(CCOc1ccc(C2NC(=O)N(C)C3=C2C(=O)c2ccccc23)cc1)CCC(Oc1ccc(C(F)(F)F)cc1)c1ccccc1` (stereo not given) are 0.81 µM, over 10 µM, over 50 µM and 11.2 µM.
In the test with Chorioallantoic membrane, `CN(Cc1cnc2nc(N)nc(N)c2n1)c1ccc(C(=O)N[C@@H](CCC(=O)O)C(=O)O)cc1` [METHOTREXATE] displayed an IC50 of 3.65 µM.
As for `CN1C(=O)N(CC(F)(F)F)C(c2ccc(OCCN3CCN(CC(F)(F)F)CC3)cc2)C2=C1c1ccccc1C2=O` (stereo not given), the IC50 is 0.93 µM at Estrogen receptor; over 10 µM against Estrogen receptor beta; over 50 µM in the test with MDA-MB-231; 5.17 µM with MCF7; 6.94 µM with Chorioallantoic membrane.
Consider `CN(C)CCOc1ccc(C2C3=C(c4ccccc4C3=O)N(C)C(=O)N2CC(F)(F)F)cc1` (stereo not given), for which the IC50 at Estrogen receptor is 7.55 µM; on Estrogen receptor beta, over 10 µM; in the test with MDA-MB-231 it was 31.6 µM; in the test with MCF7 it was 14.3 µM.
As to `CN1C(=O)N(CCN2CCNCC2)C(c2ccc(C(F)(F)F)cc2)C2=C1c1ccccc1C2=O` (stereo not given), the IC50 on Estrogen receptor was 0.021 µM; at Estrogen receptor beta it was over 10 µM; with MDA-MB-231, over 50 µM; in the test on HEK293, 44.3 µM; with MCF7, 0.89 µM; in the test with Chorioallantoic membrane, 19.1 µM.
For `CN1C(=O)NC(c2ccc(C(F)(F)F)cc2)C2=C1c1ccccc1C2=O` (stereo not given), the IC50 at Estrogen receptor is 29.6 µM; against Estrogen receptor beta, over 10 µM.
As for `CN1C(=O)N(CCN(CCO)CCO)C(c2ccc(C(F)(F)F)cc2)C2=C1c1ccccc1C2=O` (stereo not given), the concentration for half-maximal inhibition (IC50) at Estrogen receptor was 0.004 µM; at Estrogen receptor beta it was 0.31 µM; in the test on MDA-MB-231, over 50 µM; with HEK293, over 50 µM; in the test with MCF7 it was 0.081 µM; with Chorioallantoic membrane, 0.86 µM.
In the case of `CN1CCN(CCN2C(=O)N(C)C3=C(C(=O)c4ccccc43)C2c2ccc(C(F)(F)F)cc2)CC1` (stereo not given), the IC50 at Estrogen receptor is 0.072 µM; on Estrogen receptor beta, over 10 µM; in the test on MDA-MB-231, over 50 µM; in the test on HEK293 it was 38.5 µM; in the test with MCF7 it was 1.48 µM.
Consider `CN1C(=O)NC(c2ccc(OCCN3CCN(CC(F)(F)F)CC3)cc2)C2=C1c1ccccc1C2=O` (stereo not given), for which the IC50 on Estrogen receptor was 1.29 µM; at Estrogen receptor beta, over 10 µM; in the test on MDA-MB-231, over 50 µM; in the test with MCF7 it was 6.25 µM.
Take `CC/C(=C(\c1ccccc1)c1ccc(OCCN(C)C)cc1)c1ccccc1` [TAMOXIFEN]: the Ratio IC50 in test [1] was found to be 0.054. In addition, the figures for the IC50 in the test with MDA-MB-231, in the test on HEK293 and with MCF7 were 14.9 µM, 26.3 µM and 8.53 µM, respectively.
As to `CN(C)CCOc1ccc(C2NC(=O)N(C)C3=C2C(=O)c2ccccc23)cc1` (stereo not given), the IC50 at Estrogen receptor is 3.17 µM; against Estrogen receptor beta it was over 10 µM; in the test on MDA-MB-231 it was 21.1 µM; in the test with MCF7, 11.3 µM.
The like results for `CN1CCN(CCOc2ccc(C3C4=C(c5ccccc5C4=O)N(C)C(=O)N3CC(F)(F)F)cc2)CC1` (stereo not given) were, in that order, 3.01 µM, over 10 µM, 28.4 µM and 16.1 µM.
For the compound `CN1C(=O)NC(c2ccc(O)cc2)C2=C1c1ccccc1C2=O` (stereo not given), the concentration for half-maximal inhibition (IC50) was 36.1 µM at Estrogen receptor and over 10 µM at Estrogen receptor beta.
Take `CN1C(=O)NC(c2ccc(OCCN(CCO)CCO)cc2)C2=C1c1ccccc1C2=O` (stereo not given): the IC50 at Estrogen receptor was 0.0071 µM; on Estrogen receptor beta it was 0.53 µM; with MDA-MB-231, over 50 µM; with HEK293 it was over 50 µM; in the test with MCF7, 0.07 µM; in the test with Chorioallantoic membrane it was 3.52 µM.
As to `CN1C(=O)N(N(C)CCC(Oc2ccc(C(F)(F)F)cc2)c2ccccc2)C(c2ccc(C(F)(F)F)cc2)C2=C1c1ccccc1C2=O` (stereo not given), the IC50 is 1.33 µM at Estrogen receptor, over 10 µM against Estrogen receptor beta, over 50 µM in the test on MDA-MB-231 and 6.98 µM in the test on MCF7.
As to `CN1C(=O)NC(c2ccc(OCCN3CCNCC3)cc2)C2=C1c1ccccc1C2=O` (stereo not given), the IC50 at Estrogen receptor is 0.44 µM; on Estrogen receptor beta it was over 10 µM; in the test on MDA-MB-231, over 50 µM; in the test on HEK293, 37.5 µM; in the test on MCF7 it was 1.02 µM; in the test with Chorioallantoic membrane it was 6.7 µM.

The record behind these values is ChEMBL document CHEMBL5120785, “Rational design, synthesis, antiproliferative activity against MCF-7, MDA-MB-231 cells, estrogen receptors binding affinity, and computational study of indenopyrimidine-2,5-dione analogs for the treatment of breast cancer” (Bioorg Med Chem Lett, 2022).
